Assay results from patent US20210024482A1, “Novel Group of STAT3 Pathway Inhibitors and Cancer Stem Cell Pathway Inhibitors” (Sumitomo Dainippon Pharma Oncology, Inc., priority 2007, published 2021).

Columns and labels:
Stat3 [1] = experiment: Stat3 DNA binding assay (EMSA) with HeLa nuclear extracts; assay type: biochemical; conditions: HeLa nuclear extract, FIG. 7A/7B
Protocol: Electrophoretic mobility shift assay (EMSA) was performed as described by the manufacturer (Li-Cor Biosciences, Lincoln, Nebr.). Briefly, nuclear extracts were made from HeLa cells using the NucBuster Protein Extraction Kit as described by the manufacturer (EMD Biosciences, San Diego, Calif.). 5 μg of nuclear extract was pre-incubated with the indicated dose of indicated compound for 30 minutes prior to a 15-minute incubation with the IR700-labeled consensus Stat3 oligonucleotide. Samples were then electrophoresed on a polyacrylamide gel and directly scanned using the Odyssey infrared imaging system (Li-Cor Biosciences). For the enzyme-linked immunosorbent assay (ELISA), 5 μg of nuclear extract was preincubated with indicated concentration of indicated compound for 30 minutes prior to the addition of biotinylated oligo (5′-Biotin-[…]-3′, SEQ ID NO. 1). Stat3-DNA complexes were then captured on streptavidin coated 96 well plates (Pierce, Rockford, Ill.). Bound complexes were then incubated with Stat3 polyclonal antibody (Santa Cruz Biotechnology, Santa Cruz, Calif.) followed by anti-rabbit HRP conjugated secondary antibody (GE Healthcare, Pittsburgh, Pa.). Bound antibody was then visualized by addition of TMB substrate (Pierce) and absorbance measured at 450 nm,
Nuclear extracts from HeLa cells, which contain constitutively activated Stat3 as detected by phoshporylation at the tyrosine 705 residue, were used to perform Stat3 EMSAs to monitor Stat3 DNA binding activity. Nuclear extracts were incubated with indicated compound prior to incubation with IR700-labeled Stat3 consensus oligonucleotide. Binding of Stat3 to the oligonucleotide was monitored by gel electrophoresis and detection using a LiCor Odyssey infrared scanner.

Stat3 [2] = experiment: Stat3-luciferase (Stat3-Luc) reporter assay, OSM-stimulated HeLa cells; assay type: cell-based; conditions: FIG. 6
Protocol: HeLa Cells were co-transfected with Stat3-luciferase (Stat3-Luc) reporter vector (Panomics, Fremont, Calif.) and Renilla luciferase (Promega, Madison, Wis.) using Lipofectamine 2000 as described by the manufacturer (Invitrogen). Following transfection, cells were maintained in medium containing 0.5% FBS for 24 hours. Cells were then treated with the indicated compound for 30 minutes prior to the addition of 25 ng/ml oncostatin M (OSM) (R&D Systems, Minneapolis, Minn.) to the medium. 6 hours following OSM addition, cells were harvested and levels of firefly and renilla luciferase were measured using the Dual-Glo Luciferase Assay System as described by the manufacturer (Promega).
Compounds were tested for their ability to inhibit Stat3 transcription activation activity in cells using a Stat3-luciferase (Stat3-luc) reporter construct. Cells transfected with Stat3-luc were cultured in reduced serum medium prior to addition of indicated compound for 30 minutes. Cells were then stimulated with 25 ng/ml oncostatin M (OSM) for 6 hours followed by detection of Stat3-luc reporter activity. […] AG490, a known inhibitor of the Jak-Stat pathway, was included as a positive control for Stat3 inhibition.

[3] = tested on: SW480 non-side population (NSP) cells; experiment: MTT cell viability, SW480 non-side population; assay type: cell-based; conditions: Homo sapiens, 48 h
Protocol: (§1) To identify and isolate side population (SP) and non-SP fractions, SW480 cells were removed from the culture dish with trypsin and EDTA, pelleted by centrifugation, washed with phosphate-buffered saline (PBS), and resuspended at 37° C. in Dulbecco's modified Eagle's medium (DMEM) containing 2% FBS and 1 mM HEPES. The cells were then labeled with Hoechst 33342 (Invitrogen) at a concentration of 5 μg/mL. The labeled cells were incubated for 120 minutes at 37° C., either alone or with 50 μM verapamil (Sigma-Aldrich, St. Louis). After staining, the cells were suspended in Hanks' balanced saline solution (HBSS; Invitrogen) containing 2% FBS and 1 mM HEPES, passed a through 40 μm mesh filter, and maintained at 4° C. until flow cytometry analysis. The Hoechst dye was excited at 350 nm, and its fluorescence was measured at two wavelengths using a 450 DF10 (450/20 nm band-pass filter) and a 675LP (675 nm long-pass edge filter) optical filter. The gating on forward and side scatter was not stringent, and only debris was excluded,
For 3-(4,5 dimethylthiazol-2-yl)-2,5-diphenyltetrazolium (MTT) (Sigma-Aldrich, St. Louis, Mo.) analysis, cells were plated in 96 well plates at 10,000 cells per well. 24 hours after plating, compound was added to cells at indicated doses. […] The absorbance of each well was measured at 570 nm using a microplate reader. […]

FaDu cells = experiment: MTT cell viability FaDu; assay type: cell-based; conditions: Homo sapiens, Head and Neck, MTT 24 hours
Protocol: (§2) For 3-(4,5 dimethylthiazol-2-yl)-2,5-diphenyltetrazolium (MTT) (Sigma-Aldrich, St. Louis, Mo.) analysis, cells were plated in 96 well plates at 10,000 cells per well. 24 hours after plating, compound was added to cells at indicated doses. 22 hours following compound addition, MTT was added to each well (0.5 mg/ml, final concentration) and plates were incubated for an additional 2 hours at 37° C. Medium was then aspirated and the formazan product was solubilized in 100 μl of isopropyl alcohol. The absorbance of each well was measured at 570 nm using a microplate reader.
(§3) Cells plated in 96 well plates and treated with indicated compounds were subjected to MTT analysis at 24 hours following compound treatment to determine cell viability.

Paca2 cells = experiment: MTT cell viability Paca2; assay type: cell-based; conditions: PaCa-2; Paca2, Pancreas, MTT 24 hours
Protocol: as §2, §3

SW480 Hoechst SP cells = experiment: MTT cell viability, SW480 Hoechst side population CSCs; assay type: cell-based; conditions: for IC50: Homo sapiens, SW480 Hoechst SP, 48 h
Protocol: as §1, §2
The IC50 of compound 401 against the Hoechst side population was accessed in MTT assays and was compared to the IC50 against the non-side population.
In addition, we tested the activities of several other compounds against cancer stem cells. Briefly, freshly isolated CSCs (SW480 Hoechst SP cells or CD44^high FaDu cells) were exposed to a dose range (30-0.117 μM) of compound for 48 h before examining cell viability by MTT assay. IC50s were estimated by plotting the percentage of surviving cells. As shown in Table 4 and Table 5, compounds of present invention can target cancer stem cells.

CD44^low FaDu cells = experiment: MTT cell viability, CD44low FaDu cells; assay type: cell-based; conditions: Homo sapiens, 48 h
CD44^high FaDu cells = experiment: MTT cell viability, CD44high FaDu CSCs; assay type: cell-based; conditions: Homo sapiens, 48 h
Protocol: CD44^high cells were isolated by FACS according to the methods described in Ponti et al, with slight modification. Briefly, after trypsinization and recovery of cells for 30 minutes at 37° C. in growth media, cells were pelleted at 400×g and were resuspended in PBS with 2% FBS and 1 mM EDTA at 1×10^6 cells/mL. Cells were then incubated on ice with a 1:100 dilution of CD44-FITC (BD Biosicences, San Diego, Calif.) for 15 minutes. Alternatively, CD24-PE (BD Bioscences, San Diego, Calif.) (1:100) was utilized for negative selection. After washing three times, cells were resuspended at 2×10^6/mL and passed through a […] mesh before sorting.
as §2
In addition, we tested the activities of several other compounds against cancer stem cells. […]

CD44^high CSCs = experiment: Sphere assay with CD44high CSCs; assay type: cell-based; conditions: spheres grown 72 hours before challenge, FIGS. 10A and 10B
Protocol: A reliable method of measuring the self-renewal capacity of cell population if the ability to be cultured as spheres in the absence of serum or attachment. CD44^high FaDu or Hoechst side population cancer stem cells were cultured in ultra low attachment plates in cancer stem cell media (DMEM/F12, B27 Neurobasal supplement, 20 ng/ml EGF, 10 ng/ml FGF, 4 μg/ml insulin, and 0.4% BSA) to allow spheres formation. Typically, sphere formation was evaluated by microscopy after 10-14 days in culture and spheres with >50 cells were scored.
One of the hallmarks cancer stem cells is their ability to self-renew. A reliable method of measuring the self-renewal capacity of cell populations is the ability to be cultured as spheres in the absence of serum or attachment. To compare the ability of compound 401 to other targeted and chemotherapeutic agents, FACS-isolated CD44^high CSCs were grown as spheres for 72 hours before being challenged with a panel of therapeutic agents. […] Tarceva, Sutent, and Gleevec were added at approximately three times their reported therapeutic concentrations.

SW480 cells = experiment: Hoechst side population staining of SW480 cells; assay type: cell-based; conditions: treatment before Hoechst staining, FIG. 8A
Protocol: as §1
To confirm that this side population is enriched with cancer stem cells, a control set of SW480 cells were first treated with Verapamil, an inhibitor of ABC transporters, before stained with Hoechst.

**Q.** How did the “inhibition of Stat3 DNA binding activity” value (Stat3 [1]) turn out when CC(=O)c1cc2c(o1)C(=O)c1cc(Cl)ccc1C2=O [Compound 416, 2-Acetyl-7-Chloro-naphtho[2,3-b]furan-4,9-dione] was run?
**A.** can inhibit Stat3's DNA binding activity

**Q.** CC(=O)c1cc2c(o1)C(=O)c1cc(F)ccc1C2=O [Compound 418, 2-Acetyl-7-Fluoro-naphtho[2,3-b]furan-4,9-dione] was tested. Which “inhibition of Stat3 DNA binding activity” value (Stat3 [1]) did it give?
**A.** can inhibit Stat3's DNA binding activity

**Q.** Which “inhibition of OSM-stimulated Stat3 reporter activity” value (Stat3 [2]) does the source give for O=C(c1ccccc1)c1cc2cc3ccccc3cc2s1 [Compound 1001, reference compound] here?
**A.** did not inhibit OSM-stimulated Stat3 reporter activity even at a much higher concentration

**Q.** How did the IC50 [3] turn out when C=C(OP(=O)(O)O)C1=CC2C(=O)c3ccccc3C(=O)C2O1 (stereo not drawn) [Compound 4011, phosphoric acid mono-[1-(4,9-dioxo-3a,4,9,9a-tetrahydro-naphtho[2,3-b]furan-2-yl)-vinyl] ester] was run?
**A.** 340 nM

**Q.** What about the IC50 (FaDu cells) of the same compound?
**A.** 353 nM

**Q.** What about the IC50 (Paca2 cells) of the same compound?
**A.** 446 nM

**Q.** What about the IC50 (SW480 Hoechst SP cells) of the same compound?
**A.** 380 nM

**Q.** And the IC50 (CD44^low FaDu cells)?
**A.** 420 nM

**Q.** What about the IC50 (CD44^high FaDu cells) of the same compound?
**A.** 270 nM

**Q.** With C=C(OP(=O)(OC)OC)C1=CC2C(=O)c3ccccc3C(=O)C2O1 (stereo not drawn) [Compound 4012, phosphoric acid 1-(4,9-dioxo-3a,4,9,9a-tetrahydro-naphtho[2,3-b]furan-2-yl)-vinyl ester dimethyl ester] as the compound, how does the IC50 [3] read?
**A.** 810 nM

**Q.** And the IC50 (FaDu cells)?
**A.** 1040 nM

**Q.** What about the IC50 (SW480 Hoechst SP cells) of the same compound?
**A.** 570 nM

**Q.** What about the IC50 (CD44^low FaDu cells) of the same compound?
**A.** 760 nM

**Q.** And the IC50 (CD44^high FaDu cells)?
**A.** 1050 nM

**Q.** Which results are given for COc1cccc2c1C(=O)c1c(O)c3c(c(O)c1C2=O)C[C@@](O)(C(=O)CO)C[C@@H]3O[C@H]1C[C@H](N)[C@H](O)[C@H](C)O1 [Doxorubicin, reference compound]?
**A.** sensitivity of side population compared to non-side population (SW480 Hoechst SP cells; FIG. 8B): the side population is much more resistant than the non-side population; prevention of sphere proliferation (CD44^high CSCs): spheres were resistant

**Q.** How did the “effect on Hoechst side population” value (SW480 cells) turn out when COc1ccc(CCN(C)CCCC(C#N)(c2ccc(OC)c(OC)c2)C(C)C)cc1OC (stereo not drawn) [Verapamil] was run?
**A.** loss of the side population

**Q.** How did the “prevention of sphere proliferation” value (CD44^high CSCs) turn out when CC(=O)O[C@@]12CO[C@@H]1C[C@H](O)[C@@]1(C)C(=O)[C@H](O)C3=C(C)[C@@H](OC(=O)[C@H](O)[C@@H](NC(=O)OC(C)(C)C)c4ccccc4)C[C@@](O)([C@@H](OC(=O)c4ccccc4)[C@H]21)C3(C)C [docetaxel] was run?
**A.** spheres were resistant
